# Numbers after ± are expanded uncertainties.
# What was measured:
# [1] = DTA
# [2] = Molar enthalpy of transition or fusion; conditions: DSC
smiles,measurement,setting,value
"O=C1c2cccc(O)c2C(=O)c2c(O)cccc21 [1,8-dihydroxyanthraquinone]",Normal melting temperature,[1]; Crystal 1,195.38 ± 1.5 °C
same,Triple point temperature,[1]; Crystal 2,435.39 ± 0.86 K
same,Molar enthalpy of transition or fusion,[2]; Crystal 1,4.79 ± 0.179 kcal/mol
same,Molar enthalpy of transition or fusion,[2]; Crystal 2,1.19 ± 0.0454 kcal/mol

# Reference: the NIST ThermoML archive (doi:10.1021/acs.jced.5b00192)
